Results as given in ChEMBL document CHEMBL1201862, “PubChem BioAssay data set” (2004).
Activity calls are given as the source filed them.

Key:
[1] = biological target: T1, RNA-binding protein pos-1 (Caenorhabditis elegans, UniProt G5EF15); assay: inhibitors of POS-1/mex-3 RNA binding, dose response, biochemical, fluorescence polarization (AID 1964);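 note: purified POS-1 fused to maltose binding protein made in E. coli; potency of compounds blocking POS-1 binding to fluorescent RNA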
T1 sequence (G5EF15 whole entry): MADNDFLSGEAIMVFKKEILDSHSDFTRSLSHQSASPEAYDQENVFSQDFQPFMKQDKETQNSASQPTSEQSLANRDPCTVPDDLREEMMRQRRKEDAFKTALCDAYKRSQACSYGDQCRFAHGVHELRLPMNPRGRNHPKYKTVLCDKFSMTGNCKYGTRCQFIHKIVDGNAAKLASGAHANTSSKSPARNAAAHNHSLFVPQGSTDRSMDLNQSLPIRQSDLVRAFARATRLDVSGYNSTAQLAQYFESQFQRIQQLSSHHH

[2] = biological target: T2, Zinc finger protein mex-5 (Caenorhabditis elegans, UniProt Q9XUB2); assay: MEX-5/TCR-2 RNA interaction inhibitors, dose response, biochemical, C. elegans, fluorescence polarization (AID 1960)
T2 sequence (Q9XUB2 whole entry): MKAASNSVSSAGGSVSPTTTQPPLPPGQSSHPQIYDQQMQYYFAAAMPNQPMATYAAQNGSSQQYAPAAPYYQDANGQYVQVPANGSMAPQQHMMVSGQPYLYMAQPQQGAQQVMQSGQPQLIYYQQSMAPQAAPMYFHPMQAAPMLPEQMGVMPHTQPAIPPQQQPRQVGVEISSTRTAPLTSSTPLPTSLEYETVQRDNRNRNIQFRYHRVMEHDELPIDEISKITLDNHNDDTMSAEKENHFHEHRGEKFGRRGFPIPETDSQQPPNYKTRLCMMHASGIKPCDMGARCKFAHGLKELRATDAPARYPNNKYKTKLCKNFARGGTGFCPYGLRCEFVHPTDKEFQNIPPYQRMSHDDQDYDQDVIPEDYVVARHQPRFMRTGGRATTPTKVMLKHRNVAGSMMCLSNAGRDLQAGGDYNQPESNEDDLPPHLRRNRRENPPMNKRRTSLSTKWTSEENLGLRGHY

[3] = biological target: T3, Replicative DNA helicase DnaB (Mycobacterium tuberculosis, UniProt P9WMR3); assay: DnaB intein splicing inhibitors, dose response, biochemical, cell-free fluorescence (AID 449749); assay type: functional
T3 sequence (P9WMR3 whole entry): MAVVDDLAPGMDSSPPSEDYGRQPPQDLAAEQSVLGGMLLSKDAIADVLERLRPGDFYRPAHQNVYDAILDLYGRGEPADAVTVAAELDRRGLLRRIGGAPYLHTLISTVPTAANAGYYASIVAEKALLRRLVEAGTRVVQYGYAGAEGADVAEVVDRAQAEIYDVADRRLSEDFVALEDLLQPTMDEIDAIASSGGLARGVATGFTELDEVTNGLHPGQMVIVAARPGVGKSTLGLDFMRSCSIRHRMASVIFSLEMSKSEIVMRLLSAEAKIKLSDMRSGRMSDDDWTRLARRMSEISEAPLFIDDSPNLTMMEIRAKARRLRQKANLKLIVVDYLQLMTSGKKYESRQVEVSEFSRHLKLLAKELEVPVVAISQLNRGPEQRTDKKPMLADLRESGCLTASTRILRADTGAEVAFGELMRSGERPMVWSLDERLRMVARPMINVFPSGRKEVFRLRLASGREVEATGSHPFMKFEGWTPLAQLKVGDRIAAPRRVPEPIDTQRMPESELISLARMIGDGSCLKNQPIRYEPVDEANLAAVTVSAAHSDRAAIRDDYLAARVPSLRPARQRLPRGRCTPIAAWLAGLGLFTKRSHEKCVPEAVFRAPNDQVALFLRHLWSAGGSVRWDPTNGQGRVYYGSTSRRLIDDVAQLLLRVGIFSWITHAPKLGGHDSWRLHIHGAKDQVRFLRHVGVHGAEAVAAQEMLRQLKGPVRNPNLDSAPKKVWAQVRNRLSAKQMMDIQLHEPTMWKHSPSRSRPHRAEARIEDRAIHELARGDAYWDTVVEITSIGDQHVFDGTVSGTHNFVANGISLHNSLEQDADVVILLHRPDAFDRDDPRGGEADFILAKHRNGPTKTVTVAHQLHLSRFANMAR

Protein RecA = biological target: T4, Protein RecA (Mycobacterium tuberculosis, UniProt P9WHJ3); assay: Fluorescence Cell-Free Homogeneous Dose Retest to Identify Inhibitors of RecA-Intein Splicing Activity. [Related pubchem assays (depositor defined):AID2097, AID2223, AID489010, AID492950]; assay type: functional
T4 sequence (P9WHJ3 whole entry): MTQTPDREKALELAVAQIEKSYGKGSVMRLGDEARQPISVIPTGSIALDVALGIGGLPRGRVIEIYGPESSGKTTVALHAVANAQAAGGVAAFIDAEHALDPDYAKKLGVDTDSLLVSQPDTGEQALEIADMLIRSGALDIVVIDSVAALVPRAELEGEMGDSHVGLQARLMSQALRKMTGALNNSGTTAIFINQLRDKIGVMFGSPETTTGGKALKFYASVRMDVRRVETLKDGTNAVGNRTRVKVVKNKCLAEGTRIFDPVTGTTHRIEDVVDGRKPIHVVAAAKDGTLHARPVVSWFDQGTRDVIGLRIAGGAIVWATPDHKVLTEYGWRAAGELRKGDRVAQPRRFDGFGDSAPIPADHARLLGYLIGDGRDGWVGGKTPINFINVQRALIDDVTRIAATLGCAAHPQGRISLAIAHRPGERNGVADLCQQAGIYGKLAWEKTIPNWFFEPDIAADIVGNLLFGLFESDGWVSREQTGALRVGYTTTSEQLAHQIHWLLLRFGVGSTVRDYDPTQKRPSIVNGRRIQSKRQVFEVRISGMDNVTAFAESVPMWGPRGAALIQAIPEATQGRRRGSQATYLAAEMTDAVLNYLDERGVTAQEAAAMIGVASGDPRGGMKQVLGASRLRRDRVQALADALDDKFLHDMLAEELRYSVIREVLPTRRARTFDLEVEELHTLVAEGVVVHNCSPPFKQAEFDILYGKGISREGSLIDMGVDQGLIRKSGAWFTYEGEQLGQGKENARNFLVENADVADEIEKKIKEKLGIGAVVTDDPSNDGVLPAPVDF

[4] = biological target: T5, Sentrin-specific protease 8 (Homo sapiens, UniProt Q96LD8); assay type: functional
T5 sequence (Q96LD8 whole entry): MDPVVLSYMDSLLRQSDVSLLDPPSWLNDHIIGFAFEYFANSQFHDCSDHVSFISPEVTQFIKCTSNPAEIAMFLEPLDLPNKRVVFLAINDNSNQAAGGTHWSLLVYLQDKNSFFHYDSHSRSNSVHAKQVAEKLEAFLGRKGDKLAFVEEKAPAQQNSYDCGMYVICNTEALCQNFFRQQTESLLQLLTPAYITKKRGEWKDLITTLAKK

[5] = biological target: T5, Sentrin-specific protease 8; assay type: functional; remark: listed apart in the source
[6] = ARNT/TACC3 interaction disruptors, potency, confirmation, biochemical, AlphaScreen, cherry-picked samples (AID 651703); assay type: functional, Homo sapiens;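 note: His-tagged ARNT PAS-B domain paired with GST-TACC3 E629A dimer coactivator fragment; potency of inhibitors that break up the complex and lower AlphaScreen signal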
[7] = biological target: T6, Tyrosyl-DNA phosphodiesterase 2 (Homo sapiens, UniProt O95551); assay: human TDP2 enzyme inhibitors, dose response, biochemical, epi absorbance, IC50 (AID 743297)
T6 sequence (O95551 whole entry): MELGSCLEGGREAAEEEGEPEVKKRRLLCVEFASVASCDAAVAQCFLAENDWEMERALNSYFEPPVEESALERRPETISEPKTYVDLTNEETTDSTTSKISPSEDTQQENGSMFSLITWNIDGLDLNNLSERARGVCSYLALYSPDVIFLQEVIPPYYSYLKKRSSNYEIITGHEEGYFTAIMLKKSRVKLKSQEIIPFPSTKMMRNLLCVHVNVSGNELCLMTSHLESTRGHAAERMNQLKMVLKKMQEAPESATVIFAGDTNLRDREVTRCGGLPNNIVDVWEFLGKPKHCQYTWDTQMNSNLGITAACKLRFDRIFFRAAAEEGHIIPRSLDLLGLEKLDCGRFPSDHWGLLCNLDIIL

[8] = HEK293T cell cytotoxicity, dose response, cytotoxicity control for HIV Vif inhibitor project, cherry-picks (AID 652208); assay type: functional, cell-based
[9] = system: Streptococcus sp. 'group A'; assay: growth inhibition of control SK(-) GAS strain, dose response, counter-screen for streptokinase expression inhibitor project, luminescence, kanamycin, BacTiterGlo, confirmation (AID 1900); assay type: functional, organism-based
Streptococcus = assay: Group A Streptococcus viability loss, dose response, counter-screen for streptokinase expression inhibitor project, luminescence, BacTiterGlo (AID 1915); assay type: functional, organism-based;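 note: potency for reduction of bacterial viability or growth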
[10] = Luminescence Cell-Based Dose Retest to Confirm Inhibitors of Cancer Stem Cells. [Related pubchem assays (depositor defined):AID2717, AID2721]; assay type: functional; conditions: Homo sapiens
[11] = biological target: T7, Corticotropin-releasing factor receptor 2/Corticotropin-releasing factor-binding protein (Homo sapiens, UniProt P24387+Q13324); assay: Dose Response confirmation of uHTS hits for small molecule antagonists of the CRF-binding protein and CRF-R2 receptor complex.; assay type: functional; conditions: read-out: IC50_Mean
T7 sequence (Q13324 whole entry): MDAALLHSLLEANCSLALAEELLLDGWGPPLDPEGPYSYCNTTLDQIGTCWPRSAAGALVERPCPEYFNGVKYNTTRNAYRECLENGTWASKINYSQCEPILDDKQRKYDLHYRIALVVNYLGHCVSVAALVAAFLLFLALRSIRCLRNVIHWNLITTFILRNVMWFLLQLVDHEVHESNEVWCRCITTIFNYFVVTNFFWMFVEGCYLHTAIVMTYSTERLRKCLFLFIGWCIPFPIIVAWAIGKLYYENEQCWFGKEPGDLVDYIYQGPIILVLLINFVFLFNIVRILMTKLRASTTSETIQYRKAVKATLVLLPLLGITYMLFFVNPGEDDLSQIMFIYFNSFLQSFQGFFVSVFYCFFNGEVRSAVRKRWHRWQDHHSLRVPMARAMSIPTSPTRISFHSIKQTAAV
T7 sequence (P24387 whole entry): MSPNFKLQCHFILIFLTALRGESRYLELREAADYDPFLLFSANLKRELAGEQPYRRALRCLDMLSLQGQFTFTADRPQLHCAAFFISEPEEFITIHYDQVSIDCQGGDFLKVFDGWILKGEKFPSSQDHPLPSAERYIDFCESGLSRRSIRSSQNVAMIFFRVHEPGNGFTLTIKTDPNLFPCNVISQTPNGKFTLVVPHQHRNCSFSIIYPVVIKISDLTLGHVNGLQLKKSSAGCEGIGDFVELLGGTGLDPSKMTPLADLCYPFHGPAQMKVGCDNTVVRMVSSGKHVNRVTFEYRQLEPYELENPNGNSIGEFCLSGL

[12] = biological target: T7, Corticotropin-releasing factor receptor 2/Corticotropin-releasing factor-binding protein; assay: activators of CRF receptor 2 with binding protein – uHTS hits, confirmation (AID 602473); assay type: functional; conditions: read-out: EC50_Mean
Galanin receptor type 3 = Galanin receptor type 3 (Homo sapiens, UniProt O60755); assay: Fluorescence-based cell-based primary high throughput dose response assay to identify antagonists of the Galanin Receptor 3 (GalR3).; assay type: functional
cells [13] = assay type: functional, cell-based; conditions: HEK-CNG
[14] = off-target signal loss in HeLa-CEM21 co-culture – HeLa F-luc CTL cells, cherry-picked, counter-screen for HIV-1 Env fusion inhibitor project, dose response (AID 652040); assay type: functional, cell-based;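 note: potency for signal decrease marking cytotoxic or nonspecific inhibition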
[15] = inhibitors of clade B AD8 Env fusion, dose response, cell-based, cherry-pick (AID 652062); assay type: functional;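 note: luciferase signal from cell-cell fusion driven by HIV-1 clade B AD8 Env; potency is for inhibitors of fusion seen as a drop in luminescence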
Cytochrome P450 2C9 = Cytochrome P450 2C9 (Homo sapiens, UniProt P11712)
cells [16] = assay type: functional, cell-based
[17] = biological target: T8, Trace amine-associated receptor 1 (Homo sapiens, UniProt Q96RJ0); assay: Fluorescence-based cell-based high throughput dose response assay to identify agonists of the human trace amine associated receptor 1 (TAAR1).; assay type: functional
T8 sequence (Q96RJ0 whole entry): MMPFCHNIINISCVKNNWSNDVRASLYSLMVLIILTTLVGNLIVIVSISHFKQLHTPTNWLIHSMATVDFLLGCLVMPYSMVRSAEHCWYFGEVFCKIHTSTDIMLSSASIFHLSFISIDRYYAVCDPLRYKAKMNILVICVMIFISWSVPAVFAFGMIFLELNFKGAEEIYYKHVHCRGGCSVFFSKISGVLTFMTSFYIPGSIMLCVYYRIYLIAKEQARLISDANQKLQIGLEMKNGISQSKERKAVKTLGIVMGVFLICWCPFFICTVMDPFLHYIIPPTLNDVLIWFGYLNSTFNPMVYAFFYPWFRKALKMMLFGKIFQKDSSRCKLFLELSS

[18] = biological target: T8, Trace amine-associated receptor 1; assay: Counterscreen for agonists of the human trace amine associated receptor 1 (hTAAR1): Fluorescence-based cell-based high throughput dose response assay to identify hTAAR1 agonist that also desensitize TAAR1 receptor response.; assay type: functional
cells [19] = assay type: functional, cell-based; remark: listed apart in the source
[20] = NIH/3T3 fibroblast cytotoxicity, dose response, cytotoxicity control for T. cruzi growth inhibitor project, cell-based, cherry-pick samples, set 2 (AID 651817); assay type: functional; conditions: NIH3T3

Chain of Cytochrome P450 2C9 (P11712 whole entry): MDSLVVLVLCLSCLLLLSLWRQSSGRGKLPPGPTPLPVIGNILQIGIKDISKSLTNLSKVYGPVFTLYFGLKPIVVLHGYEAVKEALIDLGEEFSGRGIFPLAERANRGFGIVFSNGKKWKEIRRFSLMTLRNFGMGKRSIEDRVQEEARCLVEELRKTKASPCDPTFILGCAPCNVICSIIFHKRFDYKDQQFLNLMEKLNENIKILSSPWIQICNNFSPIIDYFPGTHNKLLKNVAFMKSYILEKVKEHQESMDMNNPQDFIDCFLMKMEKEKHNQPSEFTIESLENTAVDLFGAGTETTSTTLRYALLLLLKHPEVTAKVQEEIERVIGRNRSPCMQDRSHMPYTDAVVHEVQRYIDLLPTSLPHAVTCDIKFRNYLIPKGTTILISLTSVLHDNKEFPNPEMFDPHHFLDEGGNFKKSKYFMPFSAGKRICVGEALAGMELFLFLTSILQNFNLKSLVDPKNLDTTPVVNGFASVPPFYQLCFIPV
Chain of Galanin receptor type 3 (O60755 whole entry): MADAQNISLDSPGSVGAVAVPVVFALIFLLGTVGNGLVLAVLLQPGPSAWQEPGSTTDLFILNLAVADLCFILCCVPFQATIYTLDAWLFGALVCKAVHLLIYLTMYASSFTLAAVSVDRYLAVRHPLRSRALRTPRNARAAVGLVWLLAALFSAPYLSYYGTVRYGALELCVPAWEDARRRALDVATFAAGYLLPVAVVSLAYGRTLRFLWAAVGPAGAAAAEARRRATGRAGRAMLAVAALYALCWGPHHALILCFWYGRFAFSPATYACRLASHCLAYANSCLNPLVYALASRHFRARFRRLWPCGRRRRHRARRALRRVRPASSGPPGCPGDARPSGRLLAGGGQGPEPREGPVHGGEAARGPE

Cc1n[nH]c(O)c1C(c1ccc(-c2ccccc2C(=O)O)o1)c1c(C)n[nH]c1O
EC50 [1]: 148 µM (active) | EC50 [2]: 37 µM (active) | AC50 [3]: 0.335 µM (active) | EC50 (Protein RecA): 0.256 µM (active) | IC50 [4]: > 100 µM (inactive) | IC50 [5]: 16.4 µM (active) | AC50 [6]: 82.1 µM (active) | IC50 [7]: > 128 µM (inactive)

COc1cc(NC(=O)c2ccc(-c3csc(C)n3)cc2)c(OC)cc1Cl
AC50 [8]: 38.2 µM (active)

Cc1nn2c(COc3ccc(NC(=O)c4ccccc4Cl)cc3)nnc2c2ccccc12
EC50 [9]: 2.06 µM (active) | EC50 (Streptococcus): 1.36 µM (active) | AC50 [10]: 2.59 µM (active) | AC50 [8]: > 52 µM (inactive)

Cc1nn(C)c(Cl)c1NC(=O)OCc1ccc(Cl)cc1Cl
IC50 [11]: > 47.1 µM (inactive) | EC50 [12]: > 53 µM (inactive) | IC50 (Galanin receptor type 3): 2.13 µM (active) | EC50 (cells [13]): > 29.9 µM (inactive) | AC50 [14]: > 70 µM (inactive) | AC50 [15]: 22.5 µM (active) | AC50 (Cytochrome P450 2C9): inconclusive

O=C(CSC1=Nc2ccc(Cl)cc2S(=O)(=O)N1)NCCc1ccccc1
IC50 (cells [16]): > 29.9 µM (inactive) | EC50 [17]: 0.295 µM (active) | IC50 [18]: 2.41 µM (active) | EC50 (cells [19]): > 29.9 µM (inactive)

C[C@H](CO)N1C[C@H](C)[C@H](CN(C)Cc2ccc(Cl)c(Cl)c2)Oc2c(NC(=O)c3ccncc3)cccc2C1=O
AC50 [20]: 39 µM (inactive)

COc1ccc(CN(C)C[C@H]2Oc3c(NC(=O)Nc4ccc(C(F)(F)F)cc4)cccc3C(=O)N([C@@H](C)CO)C[C@@H]2C)cc1
AC50 [20]: 14.4 µM (active)
